Test results reported in patent US6596863B2, “Medical composition containing nitroetheneamine Derivative or salt there of as active constituent” (Ishihara Sangyo Kaisha, Ltd., priority 1998, dated 2003).
Where two headings read alike, the source gives them in different places. Marks after values point to notes of the source that are not given here.

Tests used:
[1] = target: T1, human MMP-9 (gelatinase B) (Homo sapiens, UniProt P14780); assay: Inhibition activity against human MMP-9 (gelatinase B), fluorescent peptide substrate; format: biochemical; settings: compounds of the formula (I)
T1 construct: endogenous in cells; host or cells: HT1080 human fibrosarcoma cells (ATCC CCL-121), PMA-stimulated; enzyme purified from the culture supernatant
T1 sequence (P14780 107-707 limits assumed): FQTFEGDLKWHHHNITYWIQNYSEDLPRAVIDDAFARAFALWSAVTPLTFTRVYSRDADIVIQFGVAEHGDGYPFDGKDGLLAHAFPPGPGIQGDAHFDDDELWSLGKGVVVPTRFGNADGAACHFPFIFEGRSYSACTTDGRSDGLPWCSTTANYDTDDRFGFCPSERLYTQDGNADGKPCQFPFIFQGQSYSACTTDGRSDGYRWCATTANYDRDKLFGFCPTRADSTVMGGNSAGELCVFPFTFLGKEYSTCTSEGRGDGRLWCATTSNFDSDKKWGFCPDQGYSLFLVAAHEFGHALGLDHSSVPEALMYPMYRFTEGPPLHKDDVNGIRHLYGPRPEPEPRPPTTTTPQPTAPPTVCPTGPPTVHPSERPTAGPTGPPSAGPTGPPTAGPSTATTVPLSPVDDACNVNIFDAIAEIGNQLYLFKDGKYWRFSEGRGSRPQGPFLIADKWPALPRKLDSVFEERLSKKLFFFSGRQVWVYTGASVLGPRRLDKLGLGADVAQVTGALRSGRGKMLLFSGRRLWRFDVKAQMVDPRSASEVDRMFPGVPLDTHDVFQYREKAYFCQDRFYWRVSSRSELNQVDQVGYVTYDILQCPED
Method in brief: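 MMP-9 purified from PMA-stimulated (10 ng/ml) HT1080 supernatant, or commercial enzyme (0.0125-0.025 unit/ml or 0.2 μg/ml final), incubated with compound and 10 μM final Mca-Pro-Leu-Gly-Leu-Dpa-Ala-Arg-NH2 fluorescent substrate at 37 °C for 3 h in the dark. Precursor enzyme activated with APMA.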

[2] = system: Meth A/AD cells (mouse fibrosarcoma); format: in vivo; parameters: Tumor volume (Day 22) Average ± standard deviation / Tumor growth inhibition ratio (%) / Tumor volume (Day 24) Average ± standard deviation: dose or concentration left out as unconfirmed; settings: for inhibition ratio of tumor growth of Meth A/AD: intraperitoneal administration, total of 10 times, male BALB/c mouse, tumor volume vs vehicle control
Method: Meth A mouse fibrosarcoma cells intraperitoneally subcultured in mouse (supplied from Sasaki Institute) were cultured at 39° C. for 10 days in 5% CO2 (using 10% fetal bovine serum-containing RPMI culture medium (manufactured by Flow Laboratories)) and then inoculated subcutaneously to BALB/c mouse. The tumor grown for 30 days, was taken out and passed through a metal mesh to obtain single cells, which were again returned and continuously cultured in vitro (37° C.). […] On the other hand, the Meth A/AD strain always produces and secretes MMP-2 in the supernatant in in vitro culture, but when TNF-α (50 ng/ml) was added in the culture solution, it produced MMP-9 remarkably.
With reference to the method by Keneda et al (Cancer Research, Vol. 58, 290-295, 1998), the inhibitory effect on tumor growth were evaluated. Namely, 1×10^6 Meth A/AD cells cultured in vitro (suspended in 0.05 ml of a Hanks equilibrium salt solution) were intradermaly transplanted to the dosal skin of a male BALB/c AnNCrj mouse of 5 weeks old (purchased from Charles River Japan, Inc.) (Day 0). […] Compound No. 107 was suspended in a 1% Tween 80 physiological sodium chloride aqueous solution, and Compound No. 164 was dissolved in 100 mM Tris-HCl (pH 8.5)/150 mM NaCl, for administration. To the vehicle control group, the respective solvents containing no test materials were administered in the same manner. The measurement of the body weight and the observation of the general findings were carried out everyday up to Day 22 or 24, and the tumor diameters (the long diameter and the short diameter) were measured by a slide gauge every one day, and the difference in the tumor volume between the vehicle control group and the drug-treated group was evaluated. The tumor volume was calculated in accordance with the calculation formula of [(long diameter)×(short diameter)^2×½].

[3] = 1st measurement, read-out: MMP-9 inhibition activities IC50, 1st
[4] = 2nd measurement, read-out: MMP-9 inhibition activities IC50, 2nd
[5] = average of 1st and 2nd (or single measurement), read-out: MMP-9 inhibition activities IC50, Average

Structure (SMILES)	IC50 [1, 3]	IC50 [1, 4]	IC50 [1, 5]	inhibition ratio of tumor growth of Meth A/AD ([2]; 100 mg/kg)	Tumor growth inhibition ratio (%) ([2]; intraperitoneal, Day 22)	Tumor volume (Day 22) Average ± standard deviation ([2]; intraperitoneal, Day 22, vehicle control 1058 ± 556)	inhibition ratio of tumor growth of Meth A/AD ([2]; 30 mg/kg)	Tumor growth inhibition ratio (%) ([2]; intraperitoneal, Day 24)	Tumor volume (Day 24) Average ± standard deviation ([2]; intraperitoneal, Day 24, vehicle control 2045 ± 987)
CCOCCOc1cc(C(F)(F)F)cc(NNC(=C[N+](=O)[O-])NC)n1 [Compound No. 107]	8 µM	7.4 µM	7.7 µM	63.5%	63.5* %	386 ± 275* mm^3	–	–	–
CCOCCOc1cc(C(F)(F)F)cc(NNC(=C[N+](=O)[O-])NS(C)(=O)=O)n1 [Compound No. 164, N-(1-(6-(2-ethoxyethoxy)-4-trifluoromethyl-2-pyridyl)hydrazino-2-nitroethenyl)methanesulfonamide]	5.4 µM	5.9 µM	5.7 µM	–	–	–	49.8%	49.8* %	1027 ± 907* mm^3
CS(=O)(=O)NC(=C[N+](=O)[O-])NNc1cc(C(F)(F)F)cc(Cl)n1 [Compound No. 157, N-(1-(6-chloro-4-trifluoromethyl-2-pyridyl)hydrazino-2-nitroethenyl)methanesulfonamide]	7.4 µM	5.5 µM	6.5 µM	–	–	–	–	–	–
